Results from patent US20090069324A1, “CHEMICAL INHIBITORS OF BFL-1 AND RELATED METHODS” (The Burnham Institute, priority 2007, published 2009).

How the values were obtained:
[1] = Solubility; conditions: aqueous buffer
Experimental: Compounds were screened for inhibitory activity of Bfl-1 essentially as described in Example 1, and including a 1 h incubation of Bfl-1 in the presence of compounds and a 4 h incubation after the subsequent addition of the fluorescent probe. […] The assay was screened against the entire NIH small molecule library, which at the time consisted of 65,000 compounds. […] Controls included an “artifact” plate on which a GAPDH assay was performed to check selectivity, and a solubility plate on which a solubility assay was performed to test solubility.

[2] = Microsomal stability; type: in vitro ADME; conditions: rat liver microsomes, 37.5° C.
Experimental: CID-779754 (MLS-0067130) has a metabolic half life of >60 min in the presence of rat liver microsomes when incubated at 37.5° C. (FIG. 6A), with 64% of the compound remaining at 1 hour. The plasma stability of CID-779754 is also good, with 79% remaining after incubating at 37.5° C. for 1 hour in fresh rat plasma (FIG. 6B).

[3] = PAMPA assay; type: in vitro ADME
[4] = molecular target: T1, Bcl-2 (Homo sapiens, UniProt P10415); test: Bcl-2/FITC-Bim FPA selectivity assay; type: binding; conditions: Bcl-2/FITC-Bim complex
T1 construct: lacking their C-terminal transmembrane domains (approximately last 20 amino-acids); GST (N); made in house; host or cells: XL-1 Blue cells (E. coli), pGEX 4T-1
Description: This example illustrates assays for determining the selectivity of chemical inhibitors for Bfl-1. Bfl-1, as with other Bcl-2 family proteins, participates in a very complex and intricate network of interactions with other representatives of the family. Therefore, two selectivity assays involving family members Bcl-2 and Bcl-B were developed.
For Bcl-2, a FITC-conjugated peptide corresponding to the BH3 domain of Bim was used. For Bcl-B, a FITC-conjugated peptide corresponding to a fragment of the TR3/Nur77 protein shown to bind this member of the Bcl-2 family was used.
Probe specificity for target or for cell-based/phenotypic assays data can be determined in orthogonal cell-based assay systems that address the pathway of interest. For example, compounds were tested in Bfl-1/FITC-Bid FPA and TR-FRET assays (FIGS. 7A and 7B, respectively), as well as Bcl-2/FITC-Bim FPA (FIG. 7C) and Bcl-B/FITC-TR3-R8 FPA (FIG. 7D) assays. Data represent concentration in μM x-axis) vs % displacement (y-axis).

[5] = system: human mast cells; test: Primary mast cell survival assay (activation-induced survival); type: cell-based
Experimental: To validate the biological activity of the probe in a cellular readout that is Bfl-1 dependent, CID-779754 was tested in an assay measuring the effect of compounds on primary mast cell survival.
The effect of a Bfl-1 inhibitor at, for example, 1 μM is tested on CBMCs derived from, for example, 12 different individuals. CBMCs are activated by aggregation of the high-affinity IgE-receptor (FcεRI)±CID-779754. Mast cells are cultured with or without IgE crosslinking (IgECL) agent, without or with Bfl-1 inhibitor. The percentage cell survival upon IgE-receptor activation are compared to cells not activated and the delta survival is calculated. Cell survival is measured by LDH release and data were presented as % difference between cells cultured with or without IgECL.

[6] = molecular target: T2, Bfl-1 (Homo sapiens, UniProt Q16548); test: Bfl-1 fluorescence polarization assay (FPA/FP), competition with FITC-Bid BH3 peptide; type: binding; conditions: for Bfl-1 FP assay, activity in words: Bfl-1/FITC-Bid
T2 construct: lacking their C-terminal transmembrane domains (approximately last 20 amino-acids); made in house; host or cells: XL-1 Blue cells (E. coli), pGEX 4T-1
T2 sequence (Q16548 1-155 limits assumed): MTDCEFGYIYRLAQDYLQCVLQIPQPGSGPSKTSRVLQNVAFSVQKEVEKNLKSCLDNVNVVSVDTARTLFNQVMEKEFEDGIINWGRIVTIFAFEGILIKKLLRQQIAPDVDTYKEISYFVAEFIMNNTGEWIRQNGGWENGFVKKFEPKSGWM
Experimental: Fluorescence polarization assays (FPA). To determine the binding affinity of anti-apoptotic Bcl-2 polypeptides to FITC-conjugated Bid BH3 peptide, fluorescence polarization assays (FPAs) were performed according to published procedures (Zhai et al., Biochem. J. 376:229-236 (2003)). […] Fluorescence polarization was measured after 10 min using an Analyst™ AD Assay Detection System (LJL Biosystem, Sunnyvale, Calif.) in phosphate-buffered saline (PBS) (pH 7.4). The IC50 determinations were performed using GraphPad Prism software (GraphPad, Inc., San Diego, Calif.).
Competition assays. Using the same procedure outlined above, 100 nM of GST-Bfl-1 protein were incubated with the compounds at 50 μM concentration for 30 min. Then, 5 nM of FITC-Bid BH3 peptide was added. Fluorescence polarization was measured after 10 min. […]

T1 sequence (P10415 1-218 limits assumed): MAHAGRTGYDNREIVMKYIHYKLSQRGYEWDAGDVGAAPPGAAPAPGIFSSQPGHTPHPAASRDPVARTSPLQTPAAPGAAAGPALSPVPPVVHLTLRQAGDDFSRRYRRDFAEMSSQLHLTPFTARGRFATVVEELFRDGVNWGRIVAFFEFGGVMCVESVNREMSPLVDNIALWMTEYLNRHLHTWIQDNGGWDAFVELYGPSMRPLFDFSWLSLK

CN(C)C1=C(Cl)C(=O)N(c2ccc(Cl)c(Cl)c2)C1=O [CID-779754, 3-chloro-1-(3,4-dichlorophenyl)-4-(dimethylamino)-1H-pyrrole-2,5-dione]
solubility [1]: ≤ 100 µM | compound remaining at 1 hour [2]: 64% | half-life ([2]; read-out: metabolic half life): > 1 h | log Pe ([3]; PAMPA): −4.2 | predicted human GI absorption ([3]; correlated from PAMPA log Pe): > 50% | Competition for binding of a BH3 peptide to Bcl-2, in words [4]: weak activity | effect on activation-induced survival of mast cells [5]: inhibited the activation-induced survival of human mast cells | Bfl-1 FP assay, activity in words [6]: binds reversibly and competes | Bfl-1 FP assay, activity in words ([6]; listed as MLS-0067130): equipotent with CID-1180676 | IC50 ([6]; Bfl-1 FP IC50 (uM), Tables 3-5): 0.46 µM
